Read-outs that look alike come from different tables or passages of the source.
What was measured:
Test in all cases: Ellman microplate assay, Michaelis-Menten fit
Settings in all cases: apparent, diluted plasma, 0.1 M phosphate pH 7.2, mean of 3 individuals
[1] = test system: T1, plasma ChE / plasma BChE of A. cinerea; format: biochemical, Ardea cinerea
T1 construct: native enzyme in diluted EDTA plasma, not purified
Source text: Ellman microplate assay, Michaelis-Menten fit on plasma ChE / plasma BChE of A. cinerea

[2] = test system: T2, plasma ChE / plasma BChE of C. ciconia; format: biochemical
T2 construct: native enzyme in diluted EDTA plasma, not purified
Source text: Ellman microplate assay, Michaelis-Menten fit on plasma ChE / plasma BChE of C. ciconia

[3] = test system: T3, plasma ChE / plasma BChE of M. bassanus; format: biochemical, Morus bassanus
T3 construct: native enzyme in diluted EDTA plasma, not purified
Source text: Ellman microplate assay, Michaelis-Menten fit on plasma ChE / plasma BChE of M. bassanus

SMILES: CCC(=O)SCC[N+](C)(C)C [propionylthiocholine iodide]
- Km ([1]; read-out: PrSCh / Km): 150 µM
- Km ([2]; read-out: PrSCh / Km): 6.1 µM
- Km ([3]; read-out: PrSCh / Km): 21.4 µM

SMILES: CC(=O)SCC[N+](C)(C)C [acetylthiocholine iodide]
- Km ([1]; read-out: AcSCh / Km): 247 µM
- Km ([2]; read-out: AcSCh / Km): 10.7 µM
- Km ([3]; read-out: AcSCh / Km): 15.3 µM

SMILES: CCCC(=O)SCC[N+](C)(C)C [S-butyrylthiocholine iodide]
- Km ([1]; read-out: BuSCh / Km): 167 µM
- Km ([2]; read-out: BuSCh / Km): 4.8 µM
- Km ([3]; read-out: BuSCh / Km): 19.4 µM

Source: paper PMC3314689, “Characterization of Cholinesterases in Plasma of Three Portuguese Native Bird Species: Application to Biomonitoring” (PLoS ONE, 2012)
